Laboratory results published in the CheMixHub viscosity set.

Test: xn = mol fraction of the nth substance listed

COCCO + CC1COC(=O)O1
viscosity [mPa·s], 101.33 kPa
Conditions | 298.15 K | 308.15 K | 318.15 K
x1 = 0.0271 | 2.41 | – | –
x1 = 0.0632 | 2.298 | 1.913 | 1.612
x1 = 0.0927 | 2.24 | – | –
x1 = 0.1045 | 2.193 | 1.824 | 1.541
x1 = 0.1523 | 2.104 | 1.756 | 1.484
x1 = 0.1824 | 2.057 | – | –
x1 = 0.2117 | 2.004 | 1.679 | 1.423
x1 = 0.2527 | 1.95 | 1.634 | 1.381
x1 = 0.2995 | 1.917 | – | –
x1 = 0.305 | 1.89 | 1.581 | 1.339
x1 = 0.3489 | 1.843 | 1.537 | 1.306
x1 = 0.397 | 1.794 | 1.492 | 1.273
x1 = 0.4053 | 1.813 | – | –
x1 = 0.4225 | 1.787 | – | –
x1 = 0.4547 | 1.745 | 1.456 | 1.224
x1 = 0.4942 | 1.738 | – | –
x1 = 0.4979 | 1.717 | 1.43 | 1.214
x1 = 0.5467 | 1.7 | – | –
x1 = 0.5531 | 1.68 | – | 1.183
x1 = 0.5954 | 1.664 | 1.385 | 1.172
x1 = 0.5956 | 1.674 | – | –
x1 = 0.6388 | – | 1.361 | 1.147
x1 = 0.6429 | 1.652 | – | –
x1 = 0.6954 | 1.619 | 1.341 | 1.127
x1 = 0.7027 | 1.626 | – | –
x1 = 0.7088 | 1.626 | – | –
x1 = 0.7346 | 1.593 | 1.325 | 1.111
x1 = 0.7911 | 1.602 | – | –
x1 = 0.7959 | 1.574 | 1.31 | 1.098
x1 = 0.8414 | 1.569 | 1.297 | 1.083
x1 = 0.864 | 1.575 | – | –
x1 = 0.9025 | 1.545 | 1.276 | 1.076
x1 = 0.9325 | 1.552 | – | –
x1 = 0.9593 | 1.546 | 1.266 | 1.055
x2 = 0.0163 | 1.534 | – | –

CCCCNCCCC + ClC(Cl)(Cl)Cl
298.15 K, 101.3 kPa
Conditions | viscosity [mPa·s]
x1 = 0.0922 | 0.898
x1 = 0.173 | 0.894
x1 = 0.3108 | 0.887
x1 = 0.4089 | 0.881
x1 = 0.5011 | 0.877
x1 = 0.5964 | 0.872
x1 = 0.7077 | 0.864
x1 = 0.7916 | 0.848
x1 = 0.9034 | 0.823

CCCCBr + Cc1cc(C)cc(C)c1
308.15 K, 101 kPa
Conditions | viscosity [mPa·s]
x2 = 0.0991 | 0.5234
x2 = 0.1968 | 0.5242
x2 = 0.3043 | 0.5299
x2 = 0.406 | 0.5323
x2 = 0.4969 | 0.5372
x2 = 0.5975 | 0.5416
x2 = 0.7014 | 0.5482
x2 = 0.7972 | 0.5513
x2 = 0.8984 | 0.5568

CCOC(=O)C(=O)OCC + CCO
viscosity [mPa·s]
Conditions | 303.15 K | 313.15 K | 323.15 K
101 kPa, x1 = 0.1003 | 0.935 | 0.799 | 0.667
101 kPa, x1 = 0.2024 | 0.948 | 0.809 | 0.68
101 kPa, x1 = 0.3028 | 0.988 | 0.836 | 0.711
101 kPa, x1 = 0.4015 | 1.045 | 0.879 | 0.751
101 kPa, x1 = 0.4917 | 1.108 | 0.93 | 0.793
101 kPa, x1 = 0.5907 | 1.177 | 0.99 | 0.845
101 kPa, x1 = 0.6942 | 1.259 | 1.063 | 0.909
101 kPa, x1 = 0.8049 | 1.362 | 1.151 | 0.987
101 kPa, x1 = 0.903 | 1.484 | 1.233 | 1.061
101.33 kPa, x1 = 0.1001 | 0.948 | – | –
101.33 kPa, x1 = 0.2004 | 0.968 | – | –
101.33 kPa, x1 = 0.2897 | 1.009 | – | –
101.33 kPa, x1 = 0.398 | 1.069 | – | –
101.33 kPa, x1 = 0.5098 | 1.146 | – | –
101.33 kPa, x1 = 0.5982 | 1.213 | – | –
101.33 kPa, x1 = 0.6828 | 1.283 | – | –
101.33 kPa, x1 = 0.77 | 1.371 | – | –
101.33 kPa, x1 = 0.8931 | 1.515 | – | –

CC(=O)OCC(C)C + Cc1ccc(C)cc1
viscosity [mPa·s], 101 kPa
Conditions | x1 = 0.1104 | x1 = 0.1976 | x1 = 0.2789 | x1 = 0.376 | x1 = 0.4687 | x1 = 0.5742 | x1 = 0.6833 | x1 = 0.7765 | x1 = 0.8703 | x1 = 0.9481
303.15 K | 0.569 | 0.572 | 0.577 | 0.582 | 0.588 | 0.596 | 0.605 | 0.614 | 0.622 | 0.63
313.15 K | 0.511 | 0.512 | 0.514 | 0.516 | 0.519 | 0.526 | 0.536 | 0.547 | 0.558 | 0.57

CCN(C=O)CC + O
298.16 K, 101 kPa
Conditions | viscosity [mPa·s]
x2 = 0.1029 | 1.23
x2 = 0.247 | 1.47
x2 = 0.3904 | 1.84
x2 = 0.5426 | 2.38
x2 = 0.6681 | 2.83
x2 = 0.7344 | 3
x2 = 0.7646 | 3.01
x2 = 0.8236 | 2.9
x2 = 0.8813 | 2.53

CC(=O)OC(C)C + c1ccccc1
308.15 K, 101 kPa
Conditions | viscosity [mPa·s]
x2 = 0.0634 | 0.4362
x2 = 0.2053 | 0.4409
x2 = 0.3085 | 0.4455
x2 = 0.4037 | 0.4502
x2 = 0.5044 | 0.4564
x2 = 0.6051 | 0.4587
x2 = 0.6985 | 0.4735
x2 = 0.8005 | 0.4854
x2 = 0.9366 | 0.502

COCCO + NCCO
viscosity [mPa·s], 101.3 kPa
Conditions | x2 = 0.122 | x2 = 0.348 | x2 = 0.916
298.15 K | 2.065 | 3.765 | –
308.15 K | – | – | 10.55
